Where “and” joins values, the source holds several entries; their conditions need not be identical. Identical values can stand only once. Like-named read-outs stand apart in the source and are kept apart here.
Columns and labels:
[1] = Acute peroral toxicity for warm-blooded animals (LD50, LD90); type: in vivo, white mice; conditions: mouse, in vivo, po, Table 2; peroral; read-out: LD50 for white mice
Experimental: Toxicity (LD50) was evaluated on males and females of white mice with peroral administration of the compounds. A portion of the test compound was mixed with the emulsifier Twin-20 and diluted with distilled water to the required working concentration. Administration of the preparation was effected by means of a metal probe and syringe directly into the stomach of test animals 2-3 hours after feeding. The tests were performed using several doses, 6 animals per each dose. Subsequent observation was effected for two weeks.

[2] = tested on: stalk rust of wheat (Puccinia graminis); type: in vivo
[3] = tested on: stalk rust (Puccinia graminis f. tritici); type: in vivo; conditions: in vivo

CC(=O)OC(C(Cl)(Cl)Cl)P(=O)(Oc1cccc2ccccc12)Oc1cccc2ccccc12 (stereo not drawn) [XLII]
LD50 at 336 h [1]: > 1000 mg/kg | Percentage of injury lowered ([2]; in vivo): 92% and 87%

CC(=O)OC(C(Cl)(Cl)Cl)P(=O)(Oc1ccc(Cl)cc1)Oc1ccc(Cl)cc1 (stereo not drawn) [XXX]
Percentage of plants injured with rust, 1-st evaluation [3]: 0.5% | Percentage of plants injured with rust, 2-nd evaluation [3]: 7.0% | Weight of 1,000 grains [3]: 20.9 g | Yield [3]: 16.70 c/ha | LD50 at 336 h [1]: > 1000 mg/kg | Percentage of injury lowered ([2]; in vivo): 89% and 68%

CC(=O)OC(C(Cl)(Cl)Cl)P(=O)(Oc1ccccc1C)Oc1ccccc1C (stereo not drawn) [VII]
Percentage of plants injured with rust, 1-st evaluation [3]: 0.5% | Percentage of plants injured with rust, 2-nd evaluation [3]: 9.0% | Weight of 1,000 grains [3]: 15.1 g | Yield [3]: 10.10 c/ha | LD50 at 336 h [1]: > 1000 mg/kg | Percentage of injury lowered ([2]; in vivo): 83% and 77%

CCCC(=O)OC(C(Cl)(Cl)Cl)P(=O)(Oc1ccc(-c2ccccc2)cc1)Oc1ccc(-c2ccccc2)cc1 (stereo not drawn) [XLVIII]
LD50 at 336 h [1]: > 1000 mg/kg | Percentage of injury lowered ([2]; in vivo): 67%

CC(=O)OC(C(Cl)(Cl)Cl)P(=O)(Oc1ccc(C)cc1)Oc1ccc(C)cc1 (stereo not drawn) [XVIII]
Percentage of plants injured with rust, 1-st evaluation [3]: 0.5% | Percentage of plants injured with rust, 2-nd evaluation [3]: 6.5% | Weight of 1,000 grains [3]: 21.4 g | Yield [3]: 17.20 c/ha | LD50 at 336 h [1]: > 500 mg/kg | Percentage of injury lowered ([2]; in vivo): 91% and 63%

CCC(=O)OC(C(Cl)(Cl)Cl)P(=O)(Oc1ccc(C)cc1)Oc1ccc(C)cc1 (stereo not drawn) [XIX]
Percentage of plants injured with rust, 1-st evaluation [3]: 0.5% | Percentage of plants injured with rust, 2-nd evaluation [3]: 8.0% | Weight of 1,000 grains [3]: 18.9 g | Yield [3]: 14.60 c/ha | LD50 at 336 h [1]: > 1000 mg/kg | Percentage of injury lowered ([2]; in vivo): 100% and 66%

CCCC(=O)OC(C(Cl)(Cl)Cl)P(=O)(Oc1ccc(F)cc1)Oc1ccc(F)cc1 (stereo not drawn) [XXXIV]
Percentage of plants injured with rust, 1-st evaluation [3]: 0.5% | Percentage of plants injured with rust, 2-nd evaluation [3]: 7.4% | Weight of 1,000 grains [3]: 19.6 g | Yield [3]: 15.10 c/ha | Percentage of injury lowered ([2]; in vivo): 99% and 95%

CCCCCCC(=O)OC(C(Cl)(Cl)Cl)P(=O)(Oc1cc(C)cc(C)c1)Oc1cc(C)cc(C)c1 (stereo not drawn) [XXIX]
Percentage of plants injured with rust, 1-st evaluation [3]: 0.5% | Percentage of plants injured with rust, 2-nd evaluation [3]: 9.5% | Weight of 1,000 grains [3]: 14.8 g | Yield [3]: 9.75 c/ha | LD50 at 336 h [1]: > 1000 mg/kg | Percentage of injury lowered ([2]; in vivo): 85%

O=P(Oc1ccccc1)(Oc1ccccc1)C(O)C(Cl)(Cl)Cl (stereo not drawn) [reference compound]
LD50 at 336 h [1]: > 400 mg/kg | Percentage of injury lowered ([2]; in vivo): 71% and 61%

CCCCC(CC)C(=O)OC(C(Cl)(Cl)Cl)P(=O)(Oc1ccc(C)cc1)Oc1ccc(C)cc1 (stereo not drawn) [XXII]
Percentage of plants injured with rust, 1-st evaluation [3]: 0.5% | Percentage of plants injured with rust, 2-nd evaluation [3]: 9.0% | Weight of 1,000 grains [3]: 15.8 g | Yield [3]: 11.00 c/ha | LD50 at 336 h [1]: > 1000 mg/kg | Percentage of injury lowered ([2]; in vivo): 94% and 48%

CCC(=O)OC(C(Cl)(Cl)Cl)P(=O)(Oc1ccc(Cl)c(C)c1)Oc1ccc(Cl)c(C)c1 (stereo not drawn) [XLI]
LD50 at 336 h [1]: > 1000 mg/kg | Percentage of injury lowered ([2]; in vivo): 91% and 53%

CC(=O)OC(C(Cl)(Cl)Cl)P(=O)(Oc1cccc(C)c1)Oc1cccc(C)c1 (stereo not drawn) [XII]
Percentage of plants injured with rust, 1-st evaluation [3]: 0.5% | Percentage of plants injured with rust, 2-nd evaluation [3]: 8.0% | Weight of 1,000 grains [3]: 16.1 g | Yield [3]: 11.00 c/ha | LD50 at 336 h [1]: > 1000 mg/kg | Percentage of injury lowered ([2]; in vivo): 86% and 68%

CCCCCCC(=O)OC(C(Cl)(Cl)Cl)P(=O)(Oc1cccc(C)c1)Oc1cccc(C)c1 (stereo not drawn) [XV]
Percentage of plants injured with rust, 1-st evaluation [3]: 0.5% | Percentage of plants injured with rust, 2-nd evaluation [3]: 7.0% | Weight of 1,000 grains [3]: 19.4 g | Yield [3]: 15.10 c/ha | LD50 at 336 h [1]: > 1000 mg/kg | Percentage of injury lowered ([2]; in vivo): 98% and 80%

CCCC(=O)OC(C(Cl)(Cl)Cl)P(=O)(Oc1cccc2ccccc12)Oc1cccc2ccccc12 (stereo not drawn) [XLIV]
LD50 at 336 h [1]: > 1000 mg/kg | Percentage of injury lowered ([2]; in vivo): 71%

CCC(=O)OC(C(Cl)(Cl)Cl)P(=O)(Oc1cccc2ccccc12)Oc1cccc2ccccc12 (stereo not drawn) [XLIII]
LD50 at 336 h [1]: > 1000 mg/kg | Percentage of injury lowered ([2]; in vivo): 89% and 72%

CCC(=O)OC(C(Cl)(Cl)Cl)P(=O)(Oc1ccccc1)Oc1ccccc1 (stereo not drawn) [II]
Percentage of plants injured with rust, 1-st evaluation [3]: 0.5% | Percentage of plants injured with rust, 2-nd evaluation [3]: 11.0% | Weight of 1,000 grains [3]: 16.5 g | Yield [3]: 11.50 c/ha | LD50 at 336 h [1]: > 1000 mg/kg | Percentage of injury lowered ([2]; in vivo): 78% and 63%

CCCCCCC(=O)OC(C(Cl)(Cl)Cl)P(=O)(Oc1ccc(C)cc1)Oc1ccc(C)cc1 (stereo not drawn) [XXI]
Percentage of plants injured with rust, 1-st evaluation [3]: 0.5% | Percentage of plants injured with rust, 2-nd evaluation [3]: 7.5% | Weight of 1,000 grains [3]: 18.2 g | Yield [3]: 14.00 c/ha | LD50 at 336 h [1]: > 1000 mg/kg | Percentage of injury lowered ([2]; in vivo): 97%

CCCCCCC(=O)OC(C(Cl)(Cl)Cl)P(=O)(Oc1ccccc1)Oc1ccccc1 (stereo not drawn) [IV]
Percentage of plants injured with rust, 1-st evaluation [3]: 0.5% | Percentage of plants injured with rust, 2-nd evaluation [3]: 6.5% | Weight of 1,000 grains [3]: 23.8 g | Yield [3]: 20.00 c/ha | LD50 at 336 h [1]: > 1000 mg/kg | Percentage of injury lowered ([2]; in vivo): 98% and 74%

Cc1ccccc1OP(=O)(Oc1ccccc1C)C(OC(=O)c1ccccc1)C(Cl)(Cl)Cl (stereo not drawn) [XI]
Percentage of plants injured with rust, 1-st evaluation [3]: 0.5% | Percentage of plants injured with rust, 2-nd evaluation [3]: 8.0% | Weight of 1,000 grains [3]: 17.8 g | Yield [3]: 12.40 c/ha | LD50 at 336 h [1]: > 1000 mg/kg

CCC(=O)OC(C(Cl)(Cl)Cl)P(=O)(Oc1ccc(-c2ccccc2)cc1)Oc1ccc(-c2ccccc2)cc1 (stereo not drawn) [XLVII]
LD50 at 336 h [1]: > 1000 mg/kg

CCCCC(CC)C(=O)OC(C(Cl)(Cl)Cl)P(=O)(Oc1cccc(C)c1)Oc1cccc(C)c1 (stereo not drawn) [XVI]
LD50 at 336 h [1]: > 1000 mg/kg | Percentage of injury lowered ([2]; in vivo): 86%

CC(=O)OC(C(Cl)(Cl)Cl)P(=O)(Oc1ccc(F)cc1)Oc1ccc(F)cc1 (stereo not drawn) [XXXII]
LD50 at 336 h [1]: > 1000 mg/kg | Percentage of injury lowered ([2]; in vivo): 100% and 84%

CCC(=O)OC(C(Cl)(Cl)Cl)P(=O)(Oc1ccc(F)cc1)Oc1ccc(F)cc1 (stereo not drawn) [XXXIII]
LD50 at 336 h [1]: > 1000 mg/kg | Percentage of injury lowered ([2]; in vivo): 100% and 62%

CCCCCCCCc1ccc(OP(=O)(Oc2ccc(CCCCCCCC)cc2)C(OC(=O)CC)C(Cl)(Cl)Cl)cc1 (stereo not drawn) [XXV]
Percentage of plants injured with rust, 1-st evaluation [3]: 0.5% | Percentage of plants injured with rust, 2-nd evaluation [3]: 10.0% | Weight of 1,000 grains [3]: 16.0 g | Yield [3]: 11.10 c/ha | LD50 at 336 h [1]: > 1000 mg/kg

CC(=O)OC(C(Cl)(Cl)Cl)P(=O)(Oc1ccc(-c2ccccc2)cc1)Oc1ccc(-c2ccccc2)cc1 (stereo not drawn) [XLVI]
LD50 at 336 h [1]: > 1000 mg/kg

CCCC(=O)OC(C(Cl)(Cl)Cl)P(=O)(Oc1ccccc1C)Oc1ccccc1C (stereo not drawn) [IX]
LD50 at 336 h [1]: > 1000 mg/kg

O=C(OC(C(Cl)(Cl)Cl)P(=O)(Oc1ccc(F)cc1)Oc1ccc(F)cc1)c1ccccc1 (stereo not drawn) [XXXVII]
LD50 at 336 h [1]: > 1000 mg/kg

CCCCCCC(=O)OC(C(Cl)(Cl)Cl)P(=O)(Oc1ccc(-c2ccccc2)cc1)Oc1ccc(-c2ccccc2)cc1 (stereo not drawn) [XLV]
LD50 at 336 h [1]: > 1000 mg/kg | Percentage of injury lowered ([2]; in vivo): 72%

CCC(=O)OC(C(Cl)(Cl)Cl)P(=O)(Oc1ccc(Cl)cc1C)Oc1ccc(Cl)cc1C (stereo not drawn) [XXXIX]
LD50 at 336 h [1]: > 500 mg/kg

CC(=O)OC(C(Cl)(Cl)Cl)P(=O)(Oc1ccc(Cl)c(C)c1)Oc1ccc(Cl)c(C)c1 (stereo not drawn) [XL]
LD50 at 336 h [1]: > 1000 mg/kg | Percentage of injury lowered ([2]; in vivo): 95% and 76%

CCCCC(CC)C(=O)OC(C(Cl)(Cl)Cl)P(=O)(Oc1ccc(F)cc1)Oc1ccc(F)cc1 (stereo not drawn) [XXXVI]
LD50 at 336 h [1]: > 1000 mg/kg

COP(=O)(OC)C(OC(C)=O)C(Cl)(Cl)Cl (stereo not drawn) [chloracetophos, O,O-dimethyl-1-acetoxy-2,2,2-trichloroethylphosphonate, reference compound]
LD50 at 336 h [1]: > 1000 mg/kg | Percentage of injury lowered ([2]; at a concentration of 0.02%, sprayed 3 days before inoculation): 10% | Percentage of injury lowered ([2]; at a concentration of 0.1%, sprayed 3 days before inoculation): 54%

CCCCC(CC)C(=O)OC(C(Cl)(Cl)Cl)P(=O)(Oc1ccccc1C)Oc1ccccc1C (stereo not drawn) [X]
LD50 at 336 h [1]: > 1000 mg/kg

Cc1cccc(OP(=O)(Oc2cccc(C)c2)C(OC(=O)c2ccccc2)C(Cl)(Cl)Cl)c1 (stereo not drawn) [XVII]
LD50 at 336 h [1]: > 1000 mg/kg

CC(=O)OC(C(Cl)(Cl)Cl)P(=O)(Oc1ccc(Cl)cc1C)Oc1ccc(Cl)cc1C (stereo not drawn) [XXXVIII]
LD50 at 336 h [1]: > 500 mg/kg | Percentage of injury lowered ([2]; in vivo): 92% and 53%

CCCCCCC(=O)OC(C(Cl)(Cl)Cl)P(=O)(Oc1ccc(F)cc1)Oc1ccc(F)cc1 (stereo not drawn) [XXXV]
LD50 at 336 h [1]: > 1000 mg/kg

Source: patent publication US4212862A, “O,O-Diaryl-1-acyloxy-2,2,2-trichloroethylphosphonates and fungicides based thereon” (priority 1978, dated 1980)
